Test results: article PMC4585840 (Scientific Reports, 2015)
Substitutions are numbered along the chain they refer to.

Legend:
[1] = target: T1, RCasp3 (Homo sapiens, UniProt P42574); test: in vitro fluorogenic Casp3 activity assay (Ac-DEVD-AFC); format: biochemical; conditions: 20 nM RCasp3; 1 μM Q-VD-OPh or 0.1 μM bortezomib; Fig. 5c
T1 construct: Active Casp6 and Casp3 represented >99% of the purified enzyme; purchased Enzo Lifesciences
T1 sequence (P42574 29-175 limits assumed): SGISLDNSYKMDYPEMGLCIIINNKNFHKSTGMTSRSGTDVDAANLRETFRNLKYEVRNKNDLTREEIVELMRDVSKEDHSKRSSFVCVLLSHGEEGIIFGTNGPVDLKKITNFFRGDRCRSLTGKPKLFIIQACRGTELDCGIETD
T1 sequence (P42574 176-277 limits assumed): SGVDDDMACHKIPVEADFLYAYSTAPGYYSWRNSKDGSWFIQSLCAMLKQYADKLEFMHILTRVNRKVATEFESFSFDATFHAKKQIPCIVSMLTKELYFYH

[2] = target: T2, DEVDase activity in mouse liver protein extracts (Mus musculus, UniProt P70677); test: DEVDase activity in mouse liver protein extracts with added inhibitors; format: biochemical; conditions: inhibitor added to extracts: 1 μM Q-VD-OPh, 0.1 μM bortezomib or 0.1 μM epoxomicin
T2 construct: Casp3 activity was assessed in liver protein extracts from mice; from tissue; host or cells: mouse liver (C57BL6/J), protein extracts
T2 sequence (P70677 29-175 limits assumed): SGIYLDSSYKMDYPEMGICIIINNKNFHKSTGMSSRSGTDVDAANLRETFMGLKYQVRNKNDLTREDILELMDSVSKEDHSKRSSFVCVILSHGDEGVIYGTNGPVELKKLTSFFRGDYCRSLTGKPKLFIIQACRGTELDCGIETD
T2 sequence (P70677 176-277 limits assumed): T1 sequence (P42574 176-277 limits assumed) with V3T, D5E, D6E, H10Q, A46S, Q50L, D53H, F77L, A79S
Description: (§1) Activity assays for RCasp1 (Biovision, Millpitas, CA, USA) and RCasp3 (Enzo Lifesciences) used Z-Tyr-Val-Ala-Asp-7-Amino-4-trifluoromethylcoumarin (z-YVAD-AFC: Enzo LifeSciences,), and Ac-Asp-Glu-Val-Asp-7-Amino-4-trifluoromethylcouramin (Ac-DEVD-AFC: Enzo LifeSciences), respectively. To confirm that these substrates report caspase activity and not proteasomal caspase-like enzyme activity, 1 μM pan-caspase inhibitor, Q-VD-OPh (Sigma-Aldrich) or 0.1 μM proteasome inhibitor, bortezomib (Calbiochem, MA, USA) were tested on 20 nM RCasp3 or 40–60 μg of mouse liver protein extracts.
(§2) The caspase-like activity of the proteasome was measured using 10 μM Ac-Nle-Pro-Nle-Asp-AMC (Ac-nLPnLD-AMC, Enzo Lifesciences) as described for caspase activity assays except for the use of 10 mM DTT and a 7-amino-4-methylcoumarin (AMC, Sigma-Aldrich) standard curves. Mouse liver protein extracts were treated with 0.1 μM of epoxomicin (Enzo Lifesciences), bortezomib, 1 μM of Q-VD-OPh, or equal volumes of DMSO for 20 mins on ice before measuring proteasome or caspase activities.

[3] = target: T3, RCasp6 (Homo sapiens, UniProt P55212); test: in vitro fluorogenic Casp6 activity assay (Ac-VEID-AFC); format: biochemical; conditions: 10 μM DTT; Fig. 1c
T3 construct: The zymogen is cleaved at three distinct sites to remove the prodomain and linker regions in order to obtain an active enzyme; His tag (C); made in house; host or cells: E. coli BL21 (DE3)pLysS
T3 sequence (P55212 24-179 limits assumed): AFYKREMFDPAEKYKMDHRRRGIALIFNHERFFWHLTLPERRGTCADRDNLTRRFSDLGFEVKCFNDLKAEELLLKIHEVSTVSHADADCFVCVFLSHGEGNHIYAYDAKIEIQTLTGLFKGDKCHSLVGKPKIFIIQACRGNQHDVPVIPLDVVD
T3 sequence (P55212 194-293 limits assumed): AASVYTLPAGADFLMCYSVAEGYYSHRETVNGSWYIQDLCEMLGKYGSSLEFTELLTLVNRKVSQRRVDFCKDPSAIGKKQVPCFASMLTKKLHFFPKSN

[4] = target: T3, RCasp6; test: in vitro tubulin cleavage assay with RCasp6; format: biochemical; conditions: 20 nM RCasp6, 10 μM DTT, 10 hours, western blot densitometry; read-out: IC50, cleavage of tubulin by RCasp6 (Tub∆Casp6 relative to total tubulin)
Description: Phenothiazines were mixed with 20 nM RCasp6 or RCasp3, 10 μM DTT, and 7.5 nM BSA in SB and 36 μg HCT116 protein extracts added before incubation at 37 °C for 10 hours, western blotting, and densitometry for tubulin-cleaved by Casp6 (Tub∆Casp6) and total tubulin as described in the western blot section. The IC50 was determined by a non-linear regression fit for log inhibitor vs caspase activity with a Hill slope of −1 using GraphPad Prism 5.0.
(§3) The 10630 (1:10,000) and GN60622 (1:10,000) neoepitope antibodies against the p20 subunit of active Casp6[16] and Tub∆Casp6[23], respectively, were generated in our laboratory. The β-actin clone AC-15 (1:5000, Sigma-Aldrich), Casp6 p10 clone B93-4 (1:250, BD Canada, Mississauga, ON, CA), Casp3, and full-length α-tubulin (1:1000, Cell Signaling Technology Inc., Danvers, MA, USA) antibodies were diluted in 5% non-fat dry milk in Tris-buffered saline containing 0.1% Tween-20 (Sigma-Aldrich). […] Secondary anti-mouse conjugated to alkaline phosphatase (Jackson Immunoresearch Laboratories Inc., West Grove, PA) was developed with nitro-blue tetrazolium (ThermoSci) and 5-bromo-4-chloro-3′-indolyphosphate (ThermoSci).

[5] = target: T3, RCasp6; test: inhibitor kinetic studies (Michaelis-Menten / Lineweaver-Burk) on RCasp6; format: biochemical; conditions: for mode of inhibition: Lineweaver Burk plot, Km increasing, Vmax the same; for Ki: competitive inhibition model, nonlinear regression, Ac-VEID-AFC substrate, 10 nM RCasp6
[6] = test system: HCT116 cells; test: cell viability (microscopy and MTT) in HCT116 cells; format: cell-based, human; conditions: 2 hours; for concentration at which cells retained morphology and confluence comparable to PBS-treated controls: HCT116, phase contrast microscopy
Description: (§4) HCT116 cells, plated at a density of 1 × 10^5 cells/well and human neurons, plated at a density of 6 × 10^6 cells/well on poly-L-lysine were treated with PBS or phenothiazines for 2 hours. The media was replaced before acquiring images with the Nikon Eclipse Ti microscope and the NIS-Elements (Version 3.10) software. MTT assays: Cells were plated in 96-well plates at 1 × 10^4 or 1 × 10^5 cells per well for 24 hours before treatments with phenothiazines or PBS. After 2 hours, fresh media containing […] MTT (3-(4,5-dimethylthiazol-2-yl)-2,5-diphenyltetrazolium bromide) (Sigma-Aldrich) was added and the cells were incubated for 4 hours at 37 °C in 5% CO2. The media was removed, formazan crystals were dissolved in DMSO, and the absorbance was measured at 560 nm and 670 nm using the BioTek Synergy H4 plate reader.

[7] = test system: human primary neurons; test: cell viability (microscopy) in human primary neurons; format: cell-based; conditions: phase contrast microscopy, 2 hours
Description: as §4

[8] = target: T4, Casp6 (Homo sapiens, UniProt P55212); test: Casp6 activity in serum-deprived human primary neuron cultures; format: cell-based; design: endogenous in cells; host or cells: human primary neurons from fetal brain cortex; conditions: serum-deprived neurons, 2 hrs, 100 μM methylene blue, 50 μM azure A, 10 μM azure B; for Tub∆Casp6/Tub levels: vs PBS-treated serum-deprived neurons
T4 sequence (P55212 24-179 limits assumed): T3 sequence (P55212 24-179 limits assumed)
T4 sequence (P55212 194-293 limits assumed): T3 sequence (P55212 194-293 limits assumed)

[9] = target: T4, Casp6; test: Casp6 activity in Casp6p20p10-transfected HCT116 cells; format: cell-based; design: for active Casp6p20 subunit (p20), full length Casp6 lacking its pro-domain; Casp6p20p10 (p20p10); expressed in transfected cells; host or cells: HCT116 human colon carcinoma cells; conditions: transfected HCT116, 2 hrs; 100 μM and 1 mM methylene blue, 50 μM azure A, 10 μM and 100 μM azure B
Description: as §1
Human colon carcinoma (HCT116) cells, cultured as recommended (ATCC: Manassas, VA, USA), were transfected with 1 μg pCep4βCasp6p20p10 and 8 μg polyethyleneimine (Polysciences Inc., Warrington, PA, USA), and grown 24 hrs before treatment with PBS and phenothiazines for 2 hours. Human primary neurons were cultured from fetal brain cortical areas obtained under ethical guidelines and approved by the McGill University’s institutional review board as previously described. Human primary neurons plated in poly-L-lysine -coated 6-well plates at a density of 3 × 10^6 cells/mL were serum-deprived for 2 hours in the presence of phenothiazines or an equivalent volume of PBS. Proteins were harvested in cell lysis buffer (CLB; 50mM HEPES, 0.1% CHAPS, 0.1mM EDTA).
as §3

[10] = target: T5, catalytic Cys163 of Casp6 (Homo sapiens, UniProt P55212); test: LC/MS/MS analysis of Casp6 Cys163 oxidation; conditions: RCasp6 treated with 2 mM compound, 45 min, 37 °C
T5 construct: The zymogen is cleaved at three distinct sites to remove the prodomain and linker regions in order to obtain an active enzyme; His tag (C); made in house; host or cells: E. coli BL21 (DE3)pLysS
T5 sequence (P55212 24-179 limits assumed): T3 sequence (P55212 24-179 limits assumed)
T5 sequence (P55212 194-293 limits assumed): T3 sequence (P55212 194-293 limits assumed)

[11] = target: T6, caspase-like activity of the proteasome (Mus musculus, UniProt Q60692); test: proteasome assay (Ac-nLPnLD-AMC); format: biochemical; conditions: mouse liver protein extracts, 0.1 μM bortezomib; supplementary Fig. S2
T6 construct: nLPnLDase activity in mouse liver protein extracts; from tissue; host or cells: mouse liver protein extracts
T6 sequence (Q60692 1-238): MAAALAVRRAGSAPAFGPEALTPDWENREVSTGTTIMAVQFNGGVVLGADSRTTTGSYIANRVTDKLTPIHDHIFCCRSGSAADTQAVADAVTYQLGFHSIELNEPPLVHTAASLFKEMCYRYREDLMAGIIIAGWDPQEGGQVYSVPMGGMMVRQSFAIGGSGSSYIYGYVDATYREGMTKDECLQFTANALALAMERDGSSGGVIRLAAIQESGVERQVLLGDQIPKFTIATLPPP
Description: as §2, with “activities. […]” for “activities.”
equated at 100% activity of the enzyme. Activity assays for recombinant Casp3 was done similarly to recombinant Casp6, except the substrate used was Ac-Asp-Glu-Val-Asp-7-Amino-4-trifluoromethylcouramin (Ac-DEVD-AFC: Enzo Life Sciences, NY, USA).
Proteasome assay: The caspase-like activity of the proteasome was measured using the substrate Ac-Nle-Pro-Nle-Asp-AMC (Enzo LifeSciences, NY, USA) at a final concentration of 10 µM in Stennicke’s buffer in the presence of 10 mM DTT. […]
Statistical Analysis: For Caspase-3 activity assays, data represent the mean ± SEM of 3 livers from 3 animals and was analyzed using a one-way ANOVA with Dunnett’s post hoc test (*** p < 0.001 in DMSO, and ### p < 0.001 in bortezomib) comparing all samples to LPS/GALN-treated mice in the absence of methylene blue, while proteasome assays were analyzed using […]

Row | Compound | RCasp3 activity in vitro [1] | DEVDase activity in LPS/GALN-treated mouse liver protein extracts [2] | inhibition of Casp6 activity [3] | IC50 [4] | mode of inhibition [5] | Ki [5] | concentration at which cells retained morphology and confluence comparable to PBS-treated controls [6] | concentration above which cell body size and axonal fragmentation increased [7] | VEIDase activity [8] | Tub∆Casp6/Tub levels [8] | Casp6 activity on the Ac-VEID-AFC peptide substrate [9] | further results
1 | CC(C)[C@H](NC(=O)c1ccc2ccccc2n1)C(=O)N[C@@H](CC(=O)O)C(=O)COc1c(F)cccc1F [Q-VD-OPh] | abrogated | abrogated |  |  |  |  |  |  |  |  |  | 
2 | CN(C)c1ccc2nc3ccc(N)cc3[s+]c2c1 [azure A, (7-aminophenothiazin-3-ylidene)-dimethylazanium;chloride] |  |  | inhibited Casp6 activity in a dose dependent manner | 0.5 µM | competitive | 0.42 µM | 50 μM | above 50 μM | significantly inhibited | significantly decreased | trend towards inhibition but it did not reach statistical significance | concentration necessary for a significant inhibition of Casp6 activity [3]: 10 nM; concentration above which toxicity was shown ([6]; HCT116, MTT assay): above 50 μM
3 | CNc1ccc2nc3ccc(N(C)C)cc3[s+]c2c1 [azure B, dimethyl-[7-(methylamino)phenothiazin-3-ylidene]azanium;chloride] |  |  | inhibited Casp6 activity in a dose dependent manner | 34.4 µM | competitive | 7.89 µM | 100 μM | > 10 µM | significantly inhibited | significantly decreased | significantly inhibited | concentration at which reduction in Casp6 activity was observed [3]: 100 pM; concentration up to which well tolerated ([6]; HCT116, MTT assay): up to 100 μM; sequenced peptides containing oxidized Cys163 [10]: 7.7%
4 | CC(C)C[C@H](NC(=O)[C@H](Cc1ccccc1)NC(=O)c1cnccn1)B(O)O [bortezomib] | did not inhibit |  |  |  |  |  |  |  |  |  |  | nLPnLDase proteasomal activity [11]: significantly inhibited
5 | CC[C@H](C)[C@H](NC(=O)[C@H]([C@@H](C)CC)N(C)C(C)=O)C(=O)N[C@H](C(=O)N[C@@H](CC(C)C)C(=O)[C@@]1(C)CO1)[C@@H](C)O [epoxomicin] |  | nor was Casp3 DEVDase activity affected |  |  |  |  |  |  |  |  |  | 
